Laboratory results from patent US11897868B2, “Heterocyclic inhibitors of PCSK9” (CARDIO THERAPEUTICS PTY LTD, priority 2017, dated 2024).

How the values were obtained:
[1] = target: T1, PCSK9 and the LDL receptor (Homo sapiens, UniProt Q8NBP7); assay: CircuLex PCSK9-LDLR in vitro binding assay; settings: His-tagged PCSK9 wild type, 8 point concentration curves, absorbance 450 nm and 540 nm; for IC50: read-out: Inhibition of PCSK9-LDLR binding; for Inhibition of PCSK9-LDLR binding: IC50 curves
T1 construct: purchased CircuLex CY-8150
T1 sequence (Q8NBP7 153-692): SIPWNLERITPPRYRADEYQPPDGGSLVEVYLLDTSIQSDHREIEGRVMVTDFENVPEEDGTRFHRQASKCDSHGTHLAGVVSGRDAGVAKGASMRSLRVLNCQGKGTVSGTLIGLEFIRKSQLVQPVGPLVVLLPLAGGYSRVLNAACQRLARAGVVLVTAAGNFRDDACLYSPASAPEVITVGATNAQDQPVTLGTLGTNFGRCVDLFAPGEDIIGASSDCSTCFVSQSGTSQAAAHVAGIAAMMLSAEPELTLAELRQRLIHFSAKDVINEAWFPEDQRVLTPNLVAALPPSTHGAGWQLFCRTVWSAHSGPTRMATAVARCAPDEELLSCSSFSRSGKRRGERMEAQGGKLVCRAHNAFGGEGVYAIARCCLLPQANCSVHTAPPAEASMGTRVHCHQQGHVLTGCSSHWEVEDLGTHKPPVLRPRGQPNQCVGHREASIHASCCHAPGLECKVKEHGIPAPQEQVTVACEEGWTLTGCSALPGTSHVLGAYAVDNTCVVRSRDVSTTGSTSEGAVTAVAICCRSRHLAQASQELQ
T1 sequence (Q8NBP7 31-152 partner limits assumed): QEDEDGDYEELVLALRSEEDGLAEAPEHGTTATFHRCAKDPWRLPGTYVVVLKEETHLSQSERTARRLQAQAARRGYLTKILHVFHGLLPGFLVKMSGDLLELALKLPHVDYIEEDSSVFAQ
Experimental: Compounds were assayed for their ability to inhibit the binding between PCSK9 and the LDL receptor using a CircuLex PCSK9-LDLR in vitro binding assay kit (Catalog #CY-8150. The procedure employed the reagents and buffers included in the kit as follows.
88 μL of 1× reaction buffer were placed into each well. 5 μL of test compounds in 20% DMSO were added into each well. 10 mM solutions of test compounds in DMSO were diluted by 3-fold series to give 8 point concentration curves. The compounds were then diluted 20-fold with the reaction buffer. To each well was then added 7 μL of His-tagged PCSK9 wild type solution (1000 ng/mL) into each well. The plate was then covered with a plate sealer and incubated at room temperature for 3 hours, shaking at 300 rpm on an orbital microplate shaker. The test solutions were washed 4 times with 350 μL wash buffer. 100 μL of biotinylated anti-His-tag monoclonal antibody was added to each well. The plate was covered with a plate sealer, and incubated at room temperature for 1 hour, shaking at 300 rpm. The test solutions were washed 4 times with 350 μL wash buffer. 100 μL of HRP-conjugated streptavidin was added to each well. The plate was covered with a plate sealer, and incubated at room temperature for 20 min, shaking at 300 rpm.
The test solutions were washed 4 times with 350 μL wash buffer. 100 μL of substrate reagent were added into each well. The plate was covered with a plate sealer, and incubated at room temperature for 15 min, shaking at 300 rpm. Finally, 100 μL of the stop solution was added to each well in the same order as the previously added substrate reagent. Absorbance was measured at 450 nm and 540 nm and IC50 curves were plotted.

[2] = target: T2, PCSK9-D374Y (Homo sapiens, UniProt Q8NBP7, D374Y); assay: LDL uptake in HepG2 cells treated with PCSK9-D374Y (cell-based assay); settings: HepG2 cells with PCSK9-D374Y (2 μg/ml), 16 hours, Bodipy FL LDL 4 hours, FIG. 3
T2 construct: host or cells: HepG2 cells (the protein is added from outside; LDLR is endogenous)
T2 sequence (Q8NBP7 153-692 D374Y): as the sequence (Q8NBP7 153-692) above, with D222Y counted along it
T2 sequence (Q8NBP7 31-152 partner limits assumed): as the sequence (Q8NBP7 31-152 partner limits assumed) above
Experimental: Human liver cells (hepG2) express the LDL receptor, which can take up fluorescent-labeled LDL into the cell. PCSK9 binds to LDL receptor, wherein the complex is internalized and degraded in the lysosome, resulting in lowered LDL uptake in hepG2 cells. Inhibition of PCSK9 […] lowers plasma (circulating) LDL-C by increasing LDL incorporation into the cell.
The cell-based assay was conducted as follows, according to the procedure outlined in Xu and Liu, J Bioequiv Availab 2013, 5, 7. […] Human liver HepG2 cells were seeded in a 96 well plate at 2×10^5 cells/ml and incubated overnight. PCSK9-D374Y (2 μg/ml) was added, along with test compounds. The wells were incubated for 16 hours, whereupon the medium was replaced with fresh medium containing 10 μg/ml Bodipy FL LDL, and the wells were incubated for a further 4 hours. The wells were washed using warm PBS and then the LDL uptake was quantified on a fluorescent plate reader at excitation/emission wavelengths of 485 and 530 nm respectively.
FIG. 2 indicates the decrease in LDL update in HepG2 cells comparing untreated and PCSK9-D374Y gain-of-function treated cells. Test compounds were measured at their ability to increase LDL uptake at concentrations of 0.1 and 1 μM and the results shown in FIG. 3.

SMILES	IC50 [1] [µM]	Inhibition of PCSK9-LDLR binding [1]	increase of LDL uptake ([2]; 0.1 μM compound)	increase of LDL uptake ([2]; 1 μM compound)
Cc1cn(-c2cc(NC(=O)c3ccc(C)c(Nc4nccc(-c5ccc(F)cc5)n4)c3)cc(N3CCOCC3)c2)cn1 [Example 23, 3-((4-(4-fluorophenyl)pyrimidin-2-yl)amino)-4-methyl-N-(3-(4-methyl-1H-imidazol-1-yl)-5-morpholinophenyl)benzamide]	10 to 100			
Cc1ccc(C(=O)Nc2cc(N3CCN(C)CC3)cc(-n3cnc(C)c3)c2)cc1 [Example 24, 4-methyl-N-(3-(4-methyl-1H-imidazol-1-yl)-5-(4-methylpiperazin-1-yl)phenyl)benzamide]	10 to 100			
Cc1cn(-c2cc(NC(=O)c3ccc(C)c(Oc4ccccc4)c3)cc(N3CCN(C)CC3)c2)cn1 [Example 25, 4-methyl-N-(3-(4-methyl-1H-imidazol-1-yl)-5-(4-methylpiperazin-1-yl)phenyl)-3-phenoxybenzamide]		* (Starred values refer to levels of inhibition of binding by less than 35% at the highest concentration tested, due either to solubility limitations or dynamic range limitations of the assay.)		
COCCN1CCN(c2cc(NC(=O)c3ccc(C)c(Oc4ccccc4)c3)cc(-n3cnc(C)c3)c2)CC1 [Example 26, N-(3-(4-(2-methoxyethyl)piperazin-1-yl)-5-(4-methyl-1H-imidazol-1-yl)phenyl)-4-methyl-3-phenoxybenzamide]		* (Starred values refer to levels of inhibition of binding by less than 35% at the highest concentration tested, due either to solubility limitations or dynamic range limitations of the assay.)		
Cc1cn(-c2cc(NC(=O)c3ccc(C)c(Oc4cccc5ccncc45)c3)cc(N3CCN(C)CC3)c2)cn1 [Example 27, 3-(isoquinolin-8-yloxy)-4-methyl-N-(3-(4-methyl-1H-imidazol-1-yl)-5-(4-methylpiperazin-1-yl)phenyl)benzamide]	< 0.1		Significant increases in LDL uptake equivalent to untreated cells	Significant increases in LDL uptake equivalent to untreated cells
Cc1cn(-c2cc(NC(=O)c3ccc(C)c(C(=O)c4cccc(C#N)c4)c3)cc(N3CCN(C)CC3)c2)cn1 [Example 28, 3-(3-cyanobenzoyl)-4-methyl-N-(3-(4-methyl-1H-imidazol-1-yl)-5-(4-methylpiperazin-1-yl)phenyl)benzamide]	1 to 10			
Cc1cc(-c2cc(NC(=O)c3ccc(C)c(Nc4nccc(-c5ccc(F)cc5)n4)c3)cc(N3CCN(C)CC3)c2)on1 [Example 29, 3-((4-(4-fluorophenyl)pyrimidin-2-yl)amino)-4-methyl-N-(3-(3-methylisoxazol-5-yl)-5-(4-methylpiperazin-1-yl)phenyl)benzamide]	10 to 100			
Cc1cn(-c2cc(CN3CCC[C@H](N)C3)cc(NC(=O)c3ccc(C)c(Oc4ccccc4)c3)c2)cn1 [Example 30, (S)—N-(3-((3-aminopiperidin-1-yl)methyl)-5-(4-methyl-1H-imidazol-1-yl)phenyl)-4-methyl-3-phenoxybenzamide]	0.1 to 1		Significant increases in LDL uptake equivalent to untreated cells	Significant increases in LDL uptake equivalent to untreated cells
Cc1ccc(C(=O)Nc2cccc(N3CCN(C)CC3)c2)cc1Nc1nccc(-c2ccc(F)cc2)n1 [Example 31, 3-((4-(4-fluorophenyl)pyrimidin-2-yl)amino)-4-methyl-N-(3-(4-methylpiperazin-1-yl)phenyl)benzamide]	1 to 10			
